We go through one sequence from patent US20260115265A1, “METHODS AND COMPOSITIONS FOR PREVENTING OR TREATING FOOD ALLERGIES” (Revolo Biotherapeutics Limited, priority 2022, published 2026).

The data set is described as follows: Serum/plasma pharmacokinetics (half-life). It counts as in vivo.

Read-outs that look alike come from different tables or passages of the source. Ends that are not written are not given here.

As for DGSVVVNKVSELPAGHGLNVNTLSYGDLAAD ['1104], the half-life by setting is: (in vivo, across species, read-out: half-life) 10 to 15 min; (serum, read-out: serum PK) roughly 15 min.
